# Patent publication US12129234B1, “Crystalline salts of N-ethyl-(5-fluoro-1H-indol-3-yl)-N-methylethan-1-amine” (Gilgamesh Pharmaceuticals, Inc., priority 2023, dated 2024)
# What was measured:
# [1] = Overnight humidity exposure at 30° C./90% relative humidity; format: physicochemical; details: 30° C./90% relative humidity (RH)
# Experimental: (§1) Alternatively, after the oil is formed from the evaporation of the ethanol, acetone is added to the oil at a temperature effective to solubilize the oil, ranging from about 30° C. to about 60° C., such as 45° C., and then the resulting mixture is cooled to room temperature. A non-polar antisolvent, such as n-heptane is added to the solution with stirring to form a slurry comprising N-ethyl-2-(5-fluoro-1H-indol-3-yl)-N-methylethan-1-amine monosuccinate, from which a crystalline solid comprising N-ethyl-2-(5-fluoro-1H-indol-3-yl)-N-methylethan-1-amine monosuccinate is crystallized, for example, by seeding, scratching, or aging. The solids are collected by filtration and dried under vacuum.
# [2] = Stability of the solid upon drying under vacuum; format: physicochemical; details: solids collected by filtration and dried under vacuum
# Experimental: as §1
structure (smiles),measurement,setting,value
CCN(C)CCc1c[nH]c2ccc(F)cc12.O=C(O)CCC(=O)O [N-ethyl-2-(5-fluoro-1H-indol-3-yl)-N-methylethan-1-amine monosuccinate],behaviour after humidity exposure (deliquescence),[1],deliquesces
same,stability upon drying,[2],stable upon drying
